Patent US20080275058A1, “N-Substituted-1H-Quinoline-2,4-Diones, Preparation Method Thereof, And Pharmaceutical Composition Containing The Same” (KOREA RESEARCH INSTITUTE OF CHEMICAL TECHNOLOGY, priority 2005, published 2008)
Where two headings read alike, the source gives them in different places.

Assays:
[1] = target: T1, Human serotonin 5-HT6 receptor (Homo sapiens, UniProt P50406); experiment: [3H]LSD binding assay on cloned 5-HT6 receptor membranes; details: for binding affinity at 5-HT6 receptor labeled by [3H]LSD, in words: comment on Table 2
T1 construct: made in house; host or cells: insect Sf21 cells (baculovirus vector BacPAK8)

5-HT1a = target: T2, 5-HT1a (Homo sapiens, UniProt P08908); experiment: Radioligand binding, 5-HT1a ([3H]8-OH-DPAT); details: Table 4; [3H]8-OH-DPAT 0.5 nM; read-out: Binding affinity, IC50 (nM) 5-HT1a
T2 construct: purchased Euroscreen/BioSignal Packard Inc
T2 sequence (P08908 1-422): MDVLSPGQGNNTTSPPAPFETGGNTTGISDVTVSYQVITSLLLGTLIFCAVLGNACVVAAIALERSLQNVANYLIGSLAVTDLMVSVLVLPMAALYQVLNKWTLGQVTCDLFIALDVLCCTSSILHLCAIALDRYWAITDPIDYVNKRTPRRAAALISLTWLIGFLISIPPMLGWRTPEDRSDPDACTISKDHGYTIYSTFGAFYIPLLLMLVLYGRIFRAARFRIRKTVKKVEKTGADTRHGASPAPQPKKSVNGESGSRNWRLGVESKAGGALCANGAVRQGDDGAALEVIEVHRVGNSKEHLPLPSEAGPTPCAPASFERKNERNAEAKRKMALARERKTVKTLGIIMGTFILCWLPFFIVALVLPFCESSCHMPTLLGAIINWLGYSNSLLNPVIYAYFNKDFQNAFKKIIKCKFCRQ
Outline: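 Binding was measured on commercial receptor membrane preparations, following the membrane supplier's own test protocol.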

5-HT2a = target: T3, 5-HT2a (Homo sapiens, UniProt P28223); experiment: Radioligand binding, 5-HT2a ([3H]Ketanserin); details: Table 4; [3H]Ketanserin 1 nM; read-out: Binding affinity, IC50 (nM) 5-HT2a
T3 construct: purchased Euroscreen/BioSignal Packard Inc

D1 = D1 (Homo sapiens, UniProt P21728); experiment: Radioligand binding, dopamine D1; details: Table 4; read-out: Binding affinity, IC50 (nM) D1
hD2L = target: T4, hD2L (Homo sapiens, UniProt P14416); experiment: Radioligand binding, dopamine D2 ([3H]spiperone); details: Table 4; [3H]spiperone 1 nM; read-out: Binding affinity, IC50 (nM) D2
T4 construct: purchased BioSignal Packard Inc., Montreal, Canada
Outline: (§1)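 Membrane competition binding with [3H]spiperone (1 nM) for hD2L and hD3, or [3H]YM-09151-2 (0.06 nM) for hD4.2, each in receptor-specific Tris-HCl pH 7.4 buffer containing Mg2+/EDTA (D3 and D4 also with K+, Ca2+; D3 with 120 mM NaCl). Compounds were tested at 7-8 concentrations in duplicate, and IC50 was derived by nonlinear regression across three assays.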

hD3 = target: T5, hD3 (Homo sapiens, UniProt P35462); experiment: Radioligand binding, dopamine D3 ([3H]spiperone); details: Table 4; [3H]spiperone 1 nM; read-out: Binding affinity, IC50 (nM) D3
T5 construct: purchased BioSignal Packard Inc., Montreal, Canada
Outline: as §1

5-HT6 receptors = 5-HT6 receptors (Homo sapiens, UniProt P50406); experiment: Adenylyl cyclase activity (cAMP accumulation) in HeLa cells transfected with human 5-HT6 receptor; type: cell-based; details: for increase in cAMP level inhibited (FIG. 1): 5-HT-induced cAMP increase
rats = experiment: Methamphetamine-induced disruption of prepulse inhibition (PPI) in rats; type: in vivo, rat; details: administered 30 min before methamphetamine
Experimental: To assay antipsychotic properties of the compounds according to the invention, prepulse inhibition (PPI) of acoustic startle in animals was performed. Startle response was measured using SR-LAB startle chamber (San Diego Instruments, San Diego, USA). The animal enclosure was housed in a ventilated and sound-attenuated startle chamber with 60 dB ambient noise level, and consisted of a Plexiglas cylinder 40 mm in diameter on a platform, connected to a piezoelectric accelerometer which detects and transducer motion within the cylinder. Acoustic noise bursts were presented through a loudspeaker mounted 24 ? above the animal. […] Each startle session began with a 5-min acclimatization period in the chamber to 68 dB background noises. The test session consisting of the following four different trial types was carried for all experiments: a 40 ms broadband 120 dB burst (P; pulse alone trial), P preceded 100 ms earlier by a 20 ms noise burst 10 dB above background (pP; prepulse+pulse trial), a 40 ms broadband 78 dB burst (prepulse alone trial), and a no stimulus trial (background). Eight trials of each type were presented in a pseudorandom order (total32 trials) with an average interval of 15 sec. separating each trial. An extra 5 pulse-alone trials were presented at the beginning and end of each test session, but were not used in the calculation of PPI values. PPI was defined as the percent reduction in startle amplitude in the presence of prepulse compared to the amplitude in the absence of the prepulse using the following Math Equation 1. […] Differences were considered significant at P<0.05. Statistical analyses were conducted using SigmaStat software (SigmaStat, Jandel Co., San Rafael, Calif.). The data were expressed as means±SEM.

Rotarod deficit in mice = type: in vivo, mouse; details: mouse, in vivo, po, unit printed as image, read-out: TD50 (median neurotoxic dose)
Outline: (§2)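 Compounds suspended in 3% Tween 80 were given p.o. to mice 60 min before testing. Rotarod deficit (%) was the proportion of animals falling within 1 min from a 1 inch knurled rod turning at 6 rpm, scored at 60, 90 and 120 min after dosing.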

mice = experiment: Rotarod deficit in mice; type: in vivo, mouse
Outline: as §2

[2] = Table 2, 1.87 nM [3H]LSD, 37 C, 60 min, read-out: IC50 (nM), binding affinity to the 5-HT6 receptor
[3] = Table 4, read-out: Binding affinity, IC50 (nM) 5-HT6
[4] = HeLa, read-out: inhibition of 0.3 μM serotonin (5-HT)-induced increase in cAMP levels

T1 sequence (P50406 whole entry): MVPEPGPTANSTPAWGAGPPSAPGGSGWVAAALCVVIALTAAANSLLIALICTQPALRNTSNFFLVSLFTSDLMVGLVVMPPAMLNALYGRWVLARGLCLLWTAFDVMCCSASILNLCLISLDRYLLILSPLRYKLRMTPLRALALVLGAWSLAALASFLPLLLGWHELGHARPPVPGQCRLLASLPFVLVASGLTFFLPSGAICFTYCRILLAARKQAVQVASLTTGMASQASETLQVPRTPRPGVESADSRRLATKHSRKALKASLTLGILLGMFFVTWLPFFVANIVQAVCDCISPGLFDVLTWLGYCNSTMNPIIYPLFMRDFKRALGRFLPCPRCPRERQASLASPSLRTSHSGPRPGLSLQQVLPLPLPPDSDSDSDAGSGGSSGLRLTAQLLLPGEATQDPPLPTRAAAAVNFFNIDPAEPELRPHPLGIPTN
5-HT6 receptors, sequence (P50406 whole entry): as above
T3 sequence (P28223 whole entry): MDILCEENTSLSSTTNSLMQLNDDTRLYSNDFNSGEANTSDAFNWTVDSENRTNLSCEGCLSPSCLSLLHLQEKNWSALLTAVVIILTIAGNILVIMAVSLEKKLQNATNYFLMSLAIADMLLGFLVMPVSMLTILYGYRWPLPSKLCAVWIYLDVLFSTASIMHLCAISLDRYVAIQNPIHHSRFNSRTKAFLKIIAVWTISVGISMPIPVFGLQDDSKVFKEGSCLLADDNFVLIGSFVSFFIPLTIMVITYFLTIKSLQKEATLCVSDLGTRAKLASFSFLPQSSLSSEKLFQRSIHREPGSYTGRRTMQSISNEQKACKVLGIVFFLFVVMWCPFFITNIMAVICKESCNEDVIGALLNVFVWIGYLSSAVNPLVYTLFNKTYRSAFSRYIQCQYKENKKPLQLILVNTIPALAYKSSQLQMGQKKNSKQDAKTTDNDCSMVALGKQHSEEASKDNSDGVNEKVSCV
T5 sequence (P35462 whole entry): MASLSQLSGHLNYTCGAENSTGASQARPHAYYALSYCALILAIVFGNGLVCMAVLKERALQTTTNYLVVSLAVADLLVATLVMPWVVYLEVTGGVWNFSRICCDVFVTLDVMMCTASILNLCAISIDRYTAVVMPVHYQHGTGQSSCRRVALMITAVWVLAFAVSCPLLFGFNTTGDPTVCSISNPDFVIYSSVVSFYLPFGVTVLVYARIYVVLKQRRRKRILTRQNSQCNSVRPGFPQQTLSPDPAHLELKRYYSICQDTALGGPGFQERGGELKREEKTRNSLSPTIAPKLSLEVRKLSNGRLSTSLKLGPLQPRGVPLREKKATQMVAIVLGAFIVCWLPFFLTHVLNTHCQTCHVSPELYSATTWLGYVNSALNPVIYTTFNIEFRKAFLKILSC
T4 sequence (P14416 whole entry): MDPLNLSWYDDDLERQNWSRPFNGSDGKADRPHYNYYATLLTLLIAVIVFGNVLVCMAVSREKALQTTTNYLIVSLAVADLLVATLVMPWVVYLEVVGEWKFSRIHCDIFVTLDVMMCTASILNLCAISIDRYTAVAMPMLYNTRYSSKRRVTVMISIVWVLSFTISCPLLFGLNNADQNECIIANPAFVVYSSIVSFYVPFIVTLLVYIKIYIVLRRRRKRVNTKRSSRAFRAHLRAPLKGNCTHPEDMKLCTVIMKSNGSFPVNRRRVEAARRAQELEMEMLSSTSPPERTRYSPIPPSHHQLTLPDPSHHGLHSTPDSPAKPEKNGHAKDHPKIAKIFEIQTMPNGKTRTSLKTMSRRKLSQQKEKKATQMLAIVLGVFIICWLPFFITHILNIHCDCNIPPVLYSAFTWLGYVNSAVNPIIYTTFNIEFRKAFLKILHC
D1, sequence (P21728 whole entry): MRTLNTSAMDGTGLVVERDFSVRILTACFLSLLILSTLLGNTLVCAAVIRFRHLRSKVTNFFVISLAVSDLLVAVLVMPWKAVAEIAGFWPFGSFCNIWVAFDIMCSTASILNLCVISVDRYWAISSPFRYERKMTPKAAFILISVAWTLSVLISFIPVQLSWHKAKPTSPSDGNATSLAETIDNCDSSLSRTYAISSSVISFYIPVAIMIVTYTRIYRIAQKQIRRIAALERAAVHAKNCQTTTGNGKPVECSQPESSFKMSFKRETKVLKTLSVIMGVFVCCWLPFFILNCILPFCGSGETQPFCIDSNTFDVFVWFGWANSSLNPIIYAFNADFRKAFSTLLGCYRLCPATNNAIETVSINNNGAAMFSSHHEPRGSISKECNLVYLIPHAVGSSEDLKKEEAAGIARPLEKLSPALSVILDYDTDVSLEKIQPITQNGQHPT

Compound	IC50 [1, 2] [nM]	IC50 [1, 3] [nM]	binding affinity at 5-HT6 receptor labeled by [3H]LSD, in words [1]	IC50 (5-HT1a) [nM]	IC50 (5-HT2a) [nM]	IC50 (D1) [nM]	IC50 (hD2L) [nM]	IC50 (hD3) [nM]	increase in cAMP level inhibited (FIG. 1) (5-HT6 receptors)	mean startle amplitude compared with methamphetamine group (rats)	TD50 at 120 min (Rotarod deficit in mice) [mg/kg]	Rotarod deficit (%) (mice; 200 p.o. (dose unit not given))	Rotarod deficit (%) (mice; 300 p.o. (dose unit not given))	Rotarod deficit (%) (mice; 400 p.o. (dose unit not given))	melting point [°C]	also measured
COc1ccc(C2(C)C(=O)c3c(N4CCNCC4)cc(Cl)cc3N(Cc3ccccc3)C2=O)cc1 (racemic) [Example 13, 1-Benzyl-7-chloro-3-(4-methoxy-phenyl)-3-methyl-5-piperazin-1-yl-1H-quinoline-2,4-dione]	0.9	0.9	significant affinities	1360	543	3590	> 10000	345	inhibited	no significant differences	> 400	0	0	0	120 to 123	–
CC1(c2ccc(O)cc2)C(=O)c2c(N3CCNCC3)cc(Cl)cc2N(Cc2ccccc2)C1=O (racemic) [Example 14, 1-Benzyl-7-chloro-3-(4-hydroxy-phenyl)-3-methyl-5-piperazin-1-yl-1H-quinoline-2,4-dione]	1	1	significant affinities	> 10000	2140	6820	> 10000	1500	inhibited	no significant differences	> 400	0	0	0	197 to 200	IC50 (5-HT6 receptors): 28.7 nM; inhibition at 0.001 µM (5-HT6 receptors; [4]): 10%; inhibition at 0.01 µM (5-HT6 receptors; [4]): 22%; inhibition at 0.1 µM (5-HT6 receptors; [4]): 81%; inhibition at 1 µM (5-HT6 receptors; [4]): 100%; inhibition at 10 µM (5-HT6 receptors; [4]): 100%
